Active and inactive are the calls of the source. The calls are words filed in the database; no cut-off is given here.

Data set [1] deals with NCI-H1437. The experiment in a line: Cytotoxicity against human NCI-H1437 cells assessed as inhibition of anchorage-independent cell growth treated every 3 days for 2 weeks by MTT assay. Type of data set: functional, cell-based. For orientation: Tetrazolium assays rely on reduction of a dye to a coloured formazan, in cell work by metabolically active cells.
The target in data set [2] is Hepatocyte growth factor receptor (Canis lupus familiaris) (UniProt Q75ZY9). Nature of the data set: Inhibition of HGF-induced Met phosphorylation at Tyr1234 and Tyr1235 in MDCK cells at 10 uM by immunoblotting. It counts as cell-based. On the technique in general: In western blotting, separated proteins are transferred to a membrane and probed.
Sequence of Hepatocyte growth factor receptor (Canis lupus familiaris) (Q75ZY9 whole entry): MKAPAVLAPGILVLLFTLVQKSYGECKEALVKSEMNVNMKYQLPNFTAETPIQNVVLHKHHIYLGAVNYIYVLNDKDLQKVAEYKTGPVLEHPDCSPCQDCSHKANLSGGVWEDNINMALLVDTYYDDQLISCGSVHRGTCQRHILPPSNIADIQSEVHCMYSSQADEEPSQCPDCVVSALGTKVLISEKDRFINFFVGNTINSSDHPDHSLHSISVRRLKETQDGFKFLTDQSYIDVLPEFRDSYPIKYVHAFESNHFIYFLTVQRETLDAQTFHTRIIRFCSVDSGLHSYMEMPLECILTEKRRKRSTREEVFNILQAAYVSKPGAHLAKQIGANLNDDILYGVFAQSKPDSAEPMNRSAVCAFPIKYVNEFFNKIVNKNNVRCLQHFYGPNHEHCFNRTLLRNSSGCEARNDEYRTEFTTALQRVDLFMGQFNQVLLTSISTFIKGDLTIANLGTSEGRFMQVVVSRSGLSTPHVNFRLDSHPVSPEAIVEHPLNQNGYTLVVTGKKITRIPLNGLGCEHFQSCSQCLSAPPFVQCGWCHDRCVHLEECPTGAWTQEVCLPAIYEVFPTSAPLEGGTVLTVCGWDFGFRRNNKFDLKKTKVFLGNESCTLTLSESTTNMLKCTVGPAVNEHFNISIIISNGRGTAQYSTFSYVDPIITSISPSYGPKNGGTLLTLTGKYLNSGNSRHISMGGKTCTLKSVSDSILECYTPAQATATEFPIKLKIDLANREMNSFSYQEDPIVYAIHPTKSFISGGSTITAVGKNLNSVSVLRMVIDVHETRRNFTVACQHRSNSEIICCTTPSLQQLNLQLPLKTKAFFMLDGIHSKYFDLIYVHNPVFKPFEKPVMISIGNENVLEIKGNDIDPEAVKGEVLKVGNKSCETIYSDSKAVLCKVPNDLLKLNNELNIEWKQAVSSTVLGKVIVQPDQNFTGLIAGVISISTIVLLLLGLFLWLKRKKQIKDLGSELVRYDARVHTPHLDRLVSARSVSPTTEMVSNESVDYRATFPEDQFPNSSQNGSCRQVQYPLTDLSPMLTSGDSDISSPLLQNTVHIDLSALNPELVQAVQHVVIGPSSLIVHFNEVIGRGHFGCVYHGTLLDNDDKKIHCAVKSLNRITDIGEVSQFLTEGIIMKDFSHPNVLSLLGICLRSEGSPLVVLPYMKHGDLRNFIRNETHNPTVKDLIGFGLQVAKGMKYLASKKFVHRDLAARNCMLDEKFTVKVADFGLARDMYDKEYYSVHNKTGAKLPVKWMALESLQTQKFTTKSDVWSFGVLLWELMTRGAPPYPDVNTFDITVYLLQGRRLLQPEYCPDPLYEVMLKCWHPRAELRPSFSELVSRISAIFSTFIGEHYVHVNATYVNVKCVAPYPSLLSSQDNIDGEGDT
Data set [3] concerns GTL 16. The experiment in a line: (§1) Cytotoxicity against human GTL16 cells expressing MET assessed as inhibition of anchorage-independent cell growth treated every 3 days for 2 weeks by MTT assay. Type of data set: functional, cell-based.
Data set [4] is described as follows: as §1. It counts as functional, cell-based. Conditions: GTL 16.
The subject of data set [5] is H1437. Nature of the data set: Inhibition of HGF-induced Met R988C mutant phosphorylation at Tyr1234 and Tyr1235 in human H1437 cells at 10 uM by immunoblotting.
Data set [6] deals with MDCK. Nature of the data set: Cytotoxicity against MDCK cells at IC50. Conditions: dog. It counts as cell-based, Canis lupus familiaris.

As a reminder, the IC50 is the concentration at which inhibition is half-maximal. For the molecule `O=C(Cc1cc(C(F)(F)F)cc(C(F)(F)F)c1)NC(Cc1ccccc1)c1cn(-c2ccc(-c3cn4c(n3)sc3ccccc34)cc2)nn1` (stereo not given), the “growth inhibition (GI)” value in data set [1] and in data set [3] was “Dose-dependent effect” throughout. Moreover, the inhibition entry in data set [2] and in data set [5] was “Active” in each case. In data set [4], the IC50 came out at 8.5 µM. Moreover, in data set [6], the Activity result is on record as “Non-toxic”.
Turning to `O=C(Cc1cc(C(F)(F)F)cc(C(F)(F)F)c1)N[C@@H](Cc1ccccc1)C(=O)Nc1ccc(-c2cn3c(n2)sc2ccccc23)cc1`, the half-maximal inhibitory concentration (IC50) in data set [4] worked out at 0.8 µM. Moreover, the Activity result in data set [6] is on record as “Non-toxic”.
For `O=C(Cc1cc(C(F)(F)F)cc(C(F)(F)F)c1)N[C@H](Cc1ccccc1)C(=O)Nc1ccc(-c2cn3c(n2)sc2ccccc23)cc1`, in that order: 1.19 µM and “Non-toxic”.

The record behind these values is ChEMBL document CHEMBL2046343, “'Click' synthesis of a triazole-based inhibitor of Met functions in cancer cells” (Bioorg Med Chem Lett, 2012).
